Results: paper PMC12473906, “Comparing the Altis RepliGut Organoid System to MDCK Monolayers in Predicting the Oral Absorption of Lenalidomide” (Pharmaceutics, 2025)
Like-named read-outs stand apart in the source and are kept apart here.

Key:
[1] = system: human intestinal organoid-derived monolayer (RepliGut)
[2] = ref PubChem; cited from earlier work
[3] = cited from earlier work; for Main Route of Absorption: as listed in Table 2, no reference given
[4] = RepliGut human jejunal organoid-derived monolayer permeability assay; conditions: human, pH 7.4
[5] = system: human intestinal organoid-derived monolayer (RepliGut); test: as above; conditions: organoid vs gMDCK
in vitro [6] = conditions: dog, MDCK, pH 7.4, gMDCK Papp
in vitro [7] = conditions: human, pH 7.4
[8] = gMDCK (P-gp knockout MDCK) monolayer permeability assay; conditions: dog, MDCK, pH 7.4, gMDCK Papp, reference compounds; apical to basolateral; n=3 biological replicates
gMDCK monolayers = conditions: MDCK

CC(C)CN(C[C@@H](O)[C@H](Cc1ccccc1)NC(=O)O[C@H]1CCOC1)S(=O)(=O)c1ccc(N)cc1 [Amprenavir]
Efflux Substrate [1]: Yes
LogP [2]: 2.2
Main Route of Absorption [3]: Transcellular

CC(CCc1ccccc1)NCC(O)c1ccc(O)c(C(N)=O)c1 (stereo not drawn) [Labetalol]
LogP [2]: 1.8
Main Route of Absorption [3]: Both
Human Fa (fraction absorbed) [3]: 95% [9]
Papp at 3 h [4]: 0.85 ×10⁻⁶ cm/s
apical to basolateral apparent permeability in intestinal organoids compared with gMDCK monolayers [5]: significantly lower
basolateral to apical permeability in intestinal organoids compared with gMDCK cells [5]: significantly higher

COCCc1ccc(OCC(O)CNC(C)C)cc1 (stereo not drawn) [Metoprolol]
Efflux Substrate [1]: No
basolateral to apical permeability in intestinal organoids compared with gMDCK cells [1]: similar
Papp at 3 h (in vitro [6]): 13 ×10⁻⁶ cm/s
Papp at 3 h (in vitro [7]): 10.1 ×10⁻⁶ cm/s

CC(C)(C)NCC(O)COc1cccc2c1CC(O)C(O)C2 (stereo not drawn) [Nadolol]
Efflux Substrate [1]: Yes
Main Route of Absorption [3]: Paracellular
Human Fa (fraction absorbed) [3]: 57% [9]
efflux ratio at 3 h (in vitro [7]): > 4
Papp at 3 h [8]: 0.09 ×10⁻⁶ cm/s
Papp at 3 h [4]: 0.17 ×10⁻⁶ cm/s
apical to basolateral apparent permeability in intestinal organoids compared with gMDCK monolayers [5]: higher
basolateral to apical permeability in intestinal organoids compared with gMDCK cells [5]: significantly higher

Lucifer yellow
effect of shaking gMDCK cells during the permeability assay on permeability (gMDCK monolayers): did not significantly change
apical to basolateral apparent permeability in intestinal organoids compared with gMDCK monolayers [1]: higher
basolateral to apical permeability in intestinal organoids compared with gMDCK cells [1]: similar
